Measured values: US20240390349A1, “DOSING REGIMEN OF CAPSID INHIBITOR” (priority 2023, published 2024)
“Also recorded” adds a separate entry of the source.

Key:
HIV-1 = assay: Efficacy of oral bridging (HIV-1 RNA, CD4), CAPELLA; type: in vivo, human; conditions: for Percentage who maintained HIV-1 RNA<50 copies/mL: OB baseline HIV-1 RNA<50, Missing=Failure; for Proportion of participants with HIV-1 RNA<50 copies/mL: suppressed at OB baseline
From the text: This Example describes analysis of oral LEN bridging administered during a Phase 2/3, global, randomized, placebo-controlled multicenter study of lenacapavir (LEN) together with an optimized background regimen (OBR) in people with HIV (PWH) with multidrug resistance (MDR) (to […] antiretroviral (ARV) medications from each of ≥3 of the 4 main classes) and who are failing their current regimen (defined as plasma HIV-1 RNA≥400 copies/mL).
This Example describes a Phase 2/3, global, randomized, placebo-controlled multicenter study of LEN together with an OBR in PWH with MDR (to ≥2 ARV medications from each of ≥3 of the 4 main classes) and who are failing their current regimen (defined as plasma HIV-1 RNA≥400 copies/mL). Participants required oral bridging if an SC injection of LEN was not administered within the protocol visit window.
Participants were enrolled in either of the following two cohorts: • Cohort 1: Randomized in a 2:1 ratio to receive oral LEN or placebo for 14 days starting on Day 1, while they continued their existing regimen; or • Cohort 2: Enrolled to receive oral LEN together with an OBR.

[1] = Safety during oral bridging period, CALIBRATE
From the text: An AE could, therefore, be any unfavorable and/or unintended sign, symptom, or disease temporally associated with the use of a study drug, whether or not considered related to the study drug.
Preexisting events that increased in severity or changed in nature during or as a consequence of participation in the clinical study were also considered AEs.

[2] = human, in vivo, sc
[3] = Safety during oral bridging, studies of Examples 4-5 together
[4] = Exposure-response analyses for efficacy and safety (PopPK-derived exposures); type: in vivo, human
Description: Exposure-response relationships for LEN were evaluated in HTE PWH with HIV-1 RNA<50 copies/mL at the oral bridging baseline in the Phase 2/3 study described in Example 4, using LEN exposure parameters (Ctrough, Cavg, and Cmax) derived from PopPK modeling.
Exposure-safety relationships for LEN were evaluated in the HTE PWH studies described in Example 4 (N=55), and in treatment-naive PWH in the study described in Example 5 (N=82) who received the oral bridging LEN regimen. Exposure-safety evaluations used LEN exposure metrics (Cavg, Ctrough, and Cmax) derived from PopPK analysis and the 5 most common treatment-emergent adverse events (TEAEs) were evaluated in relation to presence/absence in the LEN group across the entire oral bridging period in the two studies separately and combined (excluding infections and infestations AEs and injection site reactions).

[5] = Safety during oral bridging period, CAPELLA; type: in vivo
[6] = Safety data from all completed and ongoing clinical studies of LEN; type: in vivo, human; conditions: oral doses up to 1800 mg
Description: Lenacapavir has been administered orally at doses up to 1800 mg. […] Oral LEN was administered without regard to food.

HIV-1 (MT-4 cells) = assay: Inhibitory quotient 4 (4-fold in vitro protein-adjusted 95% effective concentration, MT-4 cells); type: cell-based; conditions: 4-fold in vitro protein binding-adjusted 95% effective concentration

CC(C)(C#Cc1ccc(-c2ccc(Cl)c3c(NS(C)(=O)=O)nn(CC(F)(F)F)c23)c([C@H](Cc2cc(F)cc(F)c2)NC(=O)Cn2nc(C(F)(F)F)c3c2C(F)(F)[C@@H]2C[C@H]32)n1)S(C)(=O)=O [LEN, N—((S)-1-(3-(4-chloro-3-(methylsulfonamido)-1-(2,2,2-trifluoroethyl)-1H-indazol-7-yl)-6-(3-methyl-3-(methylsulfonyl)but-1-yn-1-yl)pyridin-2-yl)-2-(3,5-difluorophenyl)ethyl)-2-((3bS,4aR)-5,5-difluoro-3-(trifluoromethyl)-3b,4,4a,5-tetrahydro-1H-cyclopropa [3,4]cyclopenta [1,2-c]pyrazol-1-yl) acetamide]
CD4 count and CD4% during oral bridging (in words) (HIV-1): continued to increase from oral bridging baseline | Mean (SD) oral bridging baseline CD4 cell count (HIV-1): 356 (261.1) cells/μL | Mean oral bridging baseline CD4 percentage (HIV-1): 17.0% | Percentage who maintained HIV-1 RNA<50 copies/mL (HIV-1; Week 10): 97.8% | Percentage who maintained HIV-1 RNA<50 copies/mL (HIV-1; Week 20): 90.9% | Mean (SD) change from oral bridging baseline in HIV-1 RNA (HIV-1; OB baseline HIV-1 RNA<50, Week 10): 0.00 (0.250) log10 copies/mL | Mean (SD) change from oral bridging baseline in HIV-1 RNA (HIV-1; OB baseline HIV-1 RNA<50, Week 20): −0.01 (0.096) log10 copies/mL | Mean (SD) baseline HIV-1 RNA (HIV-1; OB baseline HIV-1 RNA<50 copies/mL): 1.34 (0.121) log10 copies/mL | Percentage who achieved HIV-1 RNA<50 copies/mL (HIV-1; OB baseline HIV-1 RNA≥50, Missing=Excluded, Week 10): 27.3% | Percentage who achieved HIV-1 RNA<50 copies/mL (HIV-1; OB baseline HIV-1 RNA≥50, Missing=Excluded, Week 20): 50.0% | Percentage who achieved HIV-1 RNA<50 copies/mL (HIV-1; OB baseline HIV-1 RNA≥50, Missing=Failure, Week 10): 27.3% | Percentage who achieved HIV-1 RNA<50 copies/mL (HIV-1; OB baseline HIV-1 RNA≥50, Missing=Failure, Week 20): 40.0% | Mean (SD) change from oral bridging baseline in HIV-1 RNA (HIV-1; OB baseline HIV-1 RNA≥50, Week 10): −0.58 (1.188) log10 copies/mL | Mean (SD) change from oral bridging baseline in HIV-1 RNA (HIV-1; OB baseline HIV-1 RNA≥50, Week 20): −1.05 (0.867) log10 copies/mL | Mean (SD) baseline HIV-1 RNA (HIV-1; OB baseline HIV-1 RNA≥50 copies/mL): 3.43 (1.035) log10 copies/mL | Mean (SD) change from oral bridging baseline in CD4 cell count (HIV-1; Week 10): −16 (114.2) cells/μL | Mean change from oral bridging baseline in CD4 percentage (HIV-1; Week 10): 0.2% | HIV-1 RNA of the 1 participant who did not maintain <50 copies/mL (HIV-1; Week 10, missed 2 nonconsecutive oral doses, N74D): 920 copies/mL | HIV-1 RNA of the 1 participant who did not maintain <50 copies/mL (HIV-1; Week 20): 57 copies/mL | Mean (SD) change from oral bridging baseline in CD4 cell count (HIV-1; Week 20): 12 (71.8) cells/μL | Mean change from oral bridging baseline in CD4 percentage (HIV-1; Week 20): 1.0% | Mean (SD) oral bridging baseline HIV-1 RNA (HIV-1; all who received oral bridging): 1.74 (0.947) log10 copies/mL | Percentage of participants with HIV-1 RNA<50 copies/mL (HIV-1; all who received oral bridging, Missing=Excluded, Week 10): 83.9% | Percentage of participants with HIV-1 RNA<50 copies/mL (HIV-1; all who received oral bridging, Missing=Excluded, Week 20): 91.4% | Percentage of participants with HIV-1 RNA<50 copies/mL (HIV-1; all who received oral bridging, Missing=Failure, Week 10): 83.9% | Percentage of participants with HIV-1 RNA<50 copies/mL (HIV-1; all who received oral bridging, Missing=Failure, Week 20): 84.2% | Mean (SD) change from oral bridging baseline in HIV-1 RNA (HIV-1; all who received oral bridging, Week 10): -0.11 (0.597) log10 copies/mL | Mean (SD) change from oral bridging baseline in HIV-1 RNA (HIV-1; all who received oral bridging, Week 20): −0.16 (0.476) log10 copies/mL | Virologic suppression during oral bridging (in words) (HIV-1; majority of participants suppressed at OB baseline): remained virologically suppressed | Proportion of participants with HIV-1 RNA<50 copies/mL (HIV-1; Missing=Excluded, OB Baseline): 46/46 (100) % | Proportion of participants with HIV-1 RNA<50 copies/mL (HIV-1; Missing=Excluded, OB Week 30): 10/10 (100) % | Changes from oral bridging baseline in blood pressure, pulse, respiration rate, body temperature [1]: no clinically relevant changes from oral bridging baseline | Treatment-related diarrhea ([1]; 1 participant): 1.2% | Grade 3 or higher blood creatine phosphokinase increased ([1]; 2 participants, both in oral LEN group): 1.7% | Participants with Grade 3 events ([1]; LEN total group): 2.5% | Participants with Grade 3 or higher AEs ([1]; LEN total group): 5.0% | Participants with Grade 4 events ([1]; LEN total group): 2.5% | TEAE COVID-19 ([1]; LEN total group): 5.8% | TEAE influenza ([1]; LEN total group): 7.4% | TEAE nasopharyngitis ([1]; LEN total group): 5.0% | TEAE syphilis ([1]; LEN total group): 5.0% | Participants with any AE ([1]; LEN total group (121)): 62.8% | Participants with AEs related to study drug ([1]; LEN total group, all Grade 1): 3.3% | Participants with serious AEs ([1]; LEN total group, not related to study drug): 2.5% | AE oropharyngeal pain ([1]; SC LEN total group): 4.9% | Participants with AEs related to study drug ([1]; SC LEN total group): 3.7% | Participants with Grade 3 events ([1]; SC LEN total group): 1.2% | Participants with Grade 3 or higher AEs ([1]; SC LEN total group): 3.7% | Participants with Grade 4 events ([1]; SC LEN total group): 2.4% | Participants with any AE ([1]; SC LEN total group): 64.6% | Participants with serious AEs ([1]; SC LEN total group): 2.4% | TEAE COVID-19 ([1]; SC LEN total group): 4.9% | TEAE influenza ([1]; SC LEN total group): 8.5% | TEAE nasopharyngitis ([1]; SC LEN total group): 4.9% | TEAE syphilis ([1]; SC LEN total group): 4.9% | Changes from oral bridging baseline in hematology or clinical chemistry ([1]; any treatment group): no clinically relevant changes from oral bridging baseline in median values for hematology or clinical chemistry parameters | AE arthralgia ([1]; oral LEN group): 5.1% | AE blood creatine phosphokinase increase ([1]; oral LEN group): 5.1% | AE dyslipidemia ([1]; oral LEN group): 5.1% | AE oropharyngeal gonococcal infection ([1]; oral LEN group): 5.1% | Participants with AEs related to study drug ([1]; oral LEN group): 2.6% | Participants with Grade 3 events ([1]; oral LEN group): 5.1% | Participants with Grade 3 or higher AEs ([1]; oral LEN group): 7.7% | Participants with Grade 4 events ([1]; oral LEN group): 2.6% | Participants with any AE ([1]; oral LEN group): 59.0% | Participants with serious AEs ([1]; oral LEN group): 2.6% | TEAE COVID-19 ([1]; oral LEN group): 7.7% | TEAE influenza ([1]; oral LEN group): 5.1% | TEAE nasopharyngitis ([1]; oral LEN group): 5.1% | TEAE syphilis ([1]; oral LEN group): 5.1% | AEs leading to premature discontinuation of study drug or study ([1]; oral bridging period): no TEAEs which led to a premature discontinuation of study drug or from the study were reported; also recorded: no AEs that led to premature discontinuation of study drug or from the study were reported | Deaths ([1]; oral bridging period): No deaths were reported | Overall safety and tolerability of oral LEN ([1]; oral bridging period): generally safe and well tolerated | Lower 90% CI of LEN predose concentration [2]: 56.2 ng/mL | Mean LEN predose plasma concentration [2]: 74.4 ng/mL | Overall safety and tolerability of oral bridging LEN 300 mg weekly ([3]; HTE and treatment-naive PWH): generally safe and well tolerated | Study drug-related SAEs ([3]; oral bridging period): no study drug-related SAEs | Exposure-safety relationship (Cavg, Ctrough, Cmax vs common AEs) ([4]; Examples 4 (N=55) and 5 (N=82), separately and combined): lack of association between LEN exposure from oral bridging and the incidence of common AEs | Exposure-efficacy relationship (post hoc Ctrough vs HIV-1 RNA <50 or ≥50 copies/mL) ([4]; HTE PWH (Example 4)): No trend in post hoc Ctrough was observed | Participants with HIV-1 RNA<50 copies/mL at the time SC LEN was resumed ([4]; HTE PWH with HIV-1 RNA<50 at OB baseline (Example 4)): 39 of 40 | Discontinuation of study drug due to a TEAE [5]: No participant discontinued study drug due to a TEAE | Participants with Grade 2 or higher TEAEs [5]: 26.3% | Treatment-related asthenia [5]: 1.8% | Treatment-related diarrhea [5]: 3.5% | Treatment-related nausea [5]: 1.8% | Grade 5 TEAE of death ([5]; 1 participant, considered unrelated to study drug): 1.8% | Participants with treatment-related TEAEs ([5]; all Grade 1): 3.5% | AE of death leading to discontinuation of the study ([5]; one participant): 1.8% | Changes from baseline in hematology and clinical chemistry ([5]; oral bridging period): no clinically relevant changes from baseline in hematology and clinical chemistry parameters; also recorded: no clinically relevant changes from baseline in median values for hematology and clinical chemistry | Changes from baseline in vital signs ([5]; oral bridging period): no clinically relevant changes from baseline in vital signs | Overall safety and tolerability of oral LEN ([5]; oral bridging period): generally safe and well tolerated | Participants with Grade 1 TEAEs ([5]; oral bridging period): 22.8% | Participants with Grade 2 TEAEs ([5]; oral bridging period): 24.6% | TEAE COVID-19 ([5]; oral bridging period): 7.0% | TEAE cough ([5]; oral bridging period): 5.3% | TEAE diarrhea ([5]; oral bridging period): 5.3% | TEAE upper respiratory tract infection ([5]; oral bridging period): 5.3% | Participants who experienced TEAEs ([5]; oral bridging period, 57 participants): 49.1% | Overall safety and tolerability [6]: generally safe and well tolerated at the intended exposures | Plasma concentration corresponding to inhibitory quotient 4 (IQ4) (HIV-1 (MT-4 cells)): 15.5 ng/mL
